In the supplement of paper PMC10307832:

What was measured:
Test in all cases: relative viability (nuclei count vs DMSO), 5 days (fraction); higher = more cells survive
Bleomycin + Phenformin = compound: CC1=C(N=C(N=C1N)[C@H](CC(=O)N)NC[C@@H](C(=O)N)N)C(=O)N[C@@H]([C@H](C2=CN=CN2)OC3C(C(C(C(O3)CO)O)O)OC4C(C(C(C(O4)CO)O)OC(=O)N)O)C(=O)N[C@H](C)[C@H]([C@H](C)C(=O)N[C@@H]([C@@H](C)O)C(=O)NCCC5=NC(=CS5)C6=NC(=CS6)C(=O)NCCC[S+](C)C)O [Bleomycin] + N=C(N)NC(=N)NCCc1ccccc1 [Phenformin] (partner 250 µM); settings: main component drawn
How it was run: (§1)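 One day after seeding in 1536-well plates, lung cancer cell lines were dosed by pin tool. Dosing was either single-drug or a fixed anchor-drug dose plus five library-drug doses (not always all listed) in √10 steps. After 5 days, nuclei were stained in one fix-and-stain step and counted on 4× images, and relative viability is the nuclei count of treated wells over that of vehicle wells, given as the median of duplicate plates.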

Etoposide + Vorinostat = compound: COc1cc([C@@H]2c3cc4c(cc3[C@@H](O[C@@H]3O[C@@H]5CO[C@@H](C)O[C@H]5[C@H](O)[C@H]3O)[C@H]3COC(=O)[C@H]23)OCO4)cc(OC)c1O [Etoposide] + O=C(CCCCCCC(=O)Nc1ccccc1)NO [Vorinostat] (partner 1 µM)
How it was run: as §1

Etoposide + Pictilisib = compound: COc1cc([C@@H]2c3cc4c(cc3[C@@H](O[C@@H]3O[C@@H]5CO[C@@H](C)O[C@H]5[C@H](O)[C@H]3O)[C@H]3COC(=O)[C@H]23)OCO4)cc(OC)c1O [Etoposide] + CS(=O)(=O)N1CCN(Cc2cc3nc(-c4cccc5[nH]ncc45)nc(N4CCOCC4)c3s2)CC1 [Pictilisib] (partner 1 µM)
How it was run: as §1

Etoposide + Trametinib = compound: COc1cc([C@@H]2c3cc4c(cc3[C@@H](O[C@@H]3O[C@@H]5CO[C@@H](C)O[C@H]5[C@H](O)[C@H]3O)[C@H]3COC(=O)[C@H]23)OCO4)cc(OC)c1O [Etoposide] + CC(=O)Nc1cccc(-n2c(=O)n(C3CC3)c(=O)c3c(Nc4ccc(I)cc4F)n(C)c(=O)c(C)c32)c1 [Trametinib] (partner 0.02 µM)
How it was run: as §1

Cell Line: NCI-H1915
- relative viability (Bleomycin + Phenformin; first compound 0.01 µM): 0.301
- relative viability (Bleomycin + Phenformin; first compound 0.03162 µM): 0.301
- relative viability (Bleomycin + Phenformin; first compound 0.1 µM): 0.254
- relative viability (Bleomycin + Phenformin; first compound 0.3162 µM): 0.15
- relative viability (Bleomycin + Phenformin; first compound 1 µM): 0.14
- relative viability (Etoposide + Vorinostat; first compound 0.01 µM): 0.511
- relative viability (Etoposide + Vorinostat; first compound 0.03162 µM): 0.616
- relative viability (Etoposide + Vorinostat; first compound 0.1 µM): 0.426
- relative viability (Etoposide + Vorinostat; first compound 0.3162 µM): 0.477
- relative viability (Etoposide + Vorinostat; first compound 1 µM): 0.418
- relative viability (Etoposide + Pictilisib; first compound 0.01 µM): 0.934
- relative viability (Etoposide + Pictilisib; first compound 0.03162 µM): 1.14
- relative viability (Etoposide + Pictilisib; first compound 0.1 µM): 0.634
- relative viability (Etoposide + Pictilisib; first compound 0.3162 µM): 0.782
- relative viability (Etoposide + Pictilisib; first compound 1 µM): 0.481
- relative viability (Etoposide + Trametinib; first compound 0.01 µM): 0.275
- relative viability (Etoposide + Trametinib; first compound 0.03162 µM): 0.343
- relative viability (Etoposide + Trametinib; first compound 0.1 µM): 0.253
- relative viability (Etoposide + Trametinib; first compound 0.3162 µM): 0.262
- relative viability (Etoposide + Trametinib; first compound 1 µM): 0.282

Cell Line: CAL-12T
- relative viability (Bleomycin + Phenformin; first compound 0.01 µM): 0.474
- relative viability (Bleomycin + Phenformin; first compound 0.03162 µM): 0.466
- relative viability (Bleomycin + Phenformin; first compound 0.1 µM): 0.297
- relative viability (Bleomycin + Phenformin; first compound 0.3162 µM): 0.175
- relative viability (Bleomycin + Phenformin; first compound 1 µM): 0.163
- relative viability (Etoposide + Vorinostat; first compound 0.01 µM): 0.798
- relative viability (Etoposide + Vorinostat; first compound 0.03162 µM): 0.782
- relative viability (Etoposide + Vorinostat; first compound 0.1 µM): 0.724
- relative viability (Etoposide + Vorinostat; first compound 0.3162 µM): 0.403
- relative viability (Etoposide + Vorinostat; first compound 1 µM): 0.213
- relative viability (Etoposide + Pictilisib; first compound 0.01 µM): 0.508
- relative viability (Etoposide + Pictilisib; first compound 0.03162 µM): 0.438
- relative viability (Etoposide + Pictilisib; first compound 0.1 µM): 0.323
- relative viability (Etoposide + Pictilisib; first compound 0.3162 µM): 0.391
- relative viability (Etoposide + Pictilisib; first compound 1 µM): 0.258
- relative viability (Etoposide + Trametinib; first compound 0.01 µM): 0.238
- relative viability (Etoposide + Trametinib; first compound 0.03162 µM): 0.43
- relative viability (Etoposide + Trametinib; first compound 0.1 µM): 0.241
- relative viability (Etoposide + Trametinib; first compound 0.3162 µM): 0.367
- relative viability (Etoposide + Trametinib; first compound 1 µM): 0.211

Cell Line: NCI-H2087
- relative viability (Bleomycin + Phenformin; first compound 0.03162 µM): 0.465
- relative viability (Bleomycin + Phenformin; first compound 0.1 µM): 0.379
- relative viability (Bleomycin + Phenformin; first compound 0.3162 µM): 0.184
- relative viability (Bleomycin + Phenformin; first compound 1 µM): 0.162
- relative viability (Etoposide + Vorinostat; first compound 0.01 µM): 1.08
- relative viability (Etoposide + Vorinostat; first compound 0.03162 µM): 0.975
- relative viability (Etoposide + Vorinostat; first compound 0.1 µM): 0.641
- relative viability (Etoposide + Vorinostat; first compound 0.3162 µM): 0.524
- relative viability (Etoposide + Vorinostat; first compound 1 µM): 0.23
- relative viability (Etoposide + Pictilisib; first compound 0.03162 µM): 1.09
- relative viability (Etoposide + Pictilisib; first compound 0.1 µM): 0.551
- relative viability (Etoposide + Pictilisib; first compound 0.3162 µM): 0.543
- relative viability (Etoposide + Pictilisib; first compound 1 µM): 0.235
- relative viability (Etoposide + Trametinib; first compound 0.01 µM): 0.206
- relative viability (Etoposide + Trametinib; first compound 0.03162 µM): 0.213
- relative viability (Etoposide + Trametinib; first compound 0.1 µM): 0.173
- relative viability (Etoposide + Trametinib; first compound 0.3162 µM): 0.2
- relative viability (Etoposide + Trametinib; first compound 1 µM): 0.147

Cell Line: LXF-289
- relative viability (Bleomycin + Phenformin; first compound 0.01 µM): 0.471
- relative viability (Bleomycin + Phenformin; first compound 0.03162 µM): 0.477
- relative viability (Bleomycin + Phenformin; first compound 0.1 µM): 0.446
- relative viability (Bleomycin + Phenformin; first compound 0.3162 µM): 0.174
- relative viability (Bleomycin + Phenformin; first compound 1 µM): 0.0704
- relative viability (Etoposide + Vorinostat; first compound 0.01 µM): 0.763
- relative viability (Etoposide + Vorinostat; first compound 0.03162 µM): 0.744
- relative viability (Etoposide + Vorinostat; first compound 0.1 µM): 0.953
- relative viability (Etoposide + Vorinostat; first compound 0.3162 µM): 0.547
- relative viability (Etoposide + Vorinostat; first compound 1 µM): 0.136
- relative viability (Etoposide + Pictilisib; first compound 0.01 µM): 0.807
- relative viability (Etoposide + Pictilisib; first compound 0.03162 µM): 0.849
- relative viability (Etoposide + Pictilisib; first compound 0.1 µM): 0.655
- relative viability (Etoposide + Pictilisib; first compound 0.3162 µM): 0.556
- relative viability (Etoposide + Pictilisib; first compound 1 µM): 0.152
- relative viability (Etoposide + Trametinib; first compound 0.01 µM): 0.742
- relative viability (Etoposide + Trametinib; first compound 0.03162 µM): 0.705
- relative viability (Etoposide + Trametinib; first compound 0.1 µM): 0.71
- relative viability (Etoposide + Trametinib; first compound 0.3162 µM): 0.531
- relative viability (Etoposide + Trametinib; first compound 1 µM): 0.2

Cell Line: NCI-H520
- relative viability (Bleomycin + Phenformin; first compound 0.01 µM): 0.315
- relative viability (Bleomycin + Phenformin; first compound 0.03162 µM): 0.577
- relative viability (Bleomycin + Phenformin; first compound 0.1 µM): 0.4
- relative viability (Bleomycin + Phenformin; first compound 0.3162 µM): 0.279
- relative viability (Bleomycin + Phenformin; first compound 1 µM): 0.35
- relative viability (Etoposide + Vorinostat; first compound 0.01 µM): 0.777
- relative viability (Etoposide + Vorinostat; first compound 0.03162 µM): 0.776
- relative viability (Etoposide + Vorinostat; first compound 0.1 µM): 0.878
- relative viability (Etoposide + Vorinostat; first compound 0.3162 µM): 0.591
- relative viability (Etoposide + Vorinostat; first compound 1 µM): 0.461
- relative viability (Etoposide + Pictilisib; first compound 0.01 µM): 0.306
- relative viability (Etoposide + Pictilisib; first compound 0.03162 µM): 0.307
- relative viability (Etoposide + Pictilisib; first compound 0.1 µM): 0.27
- relative viability (Etoposide + Pictilisib; first compound 0.3162 µM): 0.277
- relative viability (Etoposide + Pictilisib; first compound 1 µM): 0.223
- relative viability (Etoposide + Trametinib; first compound 0.01 µM): 0.597
- relative viability (Etoposide + Trametinib; first compound 0.03162 µM): 0.645
- relative viability (Etoposide + Trametinib; first compound 0.1 µM): 0.414
- relative viability (Etoposide + Trametinib; first compound 0.3162 µM): 0.617
- relative viability (Etoposide + Trametinib; first compound 1 µM): 0.49

Cell Line: NCI-H1944
- relative viability (Bleomycin + Phenformin; first compound 0.01 µM): 0.145
- relative viability (Bleomycin + Phenformin; first compound 0.03162 µM): 0.144
- relative viability (Bleomycin + Phenformin; first compound 0.1 µM): 0.141
- relative viability (Bleomycin + Phenformin; first compound 0.3162 µM): 0.116
- relative viability (Bleomycin + Phenformin; first compound 1 µM): 0.102
- relative viability (Etoposide + Vorinostat; first compound 0.01 µM): 0.532
- relative viability (Etoposide + Vorinostat; first compound 0.03162 µM): 0.532
- relative viability (Etoposide + Vorinostat; first compound 0.1 µM): 0.334
- relative viability (Etoposide + Vorinostat; first compound 0.3162 µM): 0.282
- relative viability (Etoposide + Vorinostat; first compound 1 µM): 0.147
- relative viability (Etoposide + Pictilisib; first compound 0.01 µM): 0.362
- relative viability (Etoposide + Pictilisib; first compound 0.03162 µM): 0.39
- relative viability (Etoposide + Pictilisib; first compound 0.1 µM): 0.27
- relative viability (Etoposide + Pictilisib; first compound 0.3162 µM): 0.294
- relative viability (Etoposide + Pictilisib; first compound 1 µM): 0.222
- relative viability (Etoposide + Trametinib; first compound 0.01 µM): 0.435
- relative viability (Etoposide + Trametinib; first compound 0.03162 µM): 0.46
- relative viability (Etoposide + Trametinib; first compound 0.1 µM): 0.297
- relative viability (Etoposide + Trametinib; first compound 0.3162 µM): 0.255
- relative viability (Etoposide + Trametinib; first compound 1 µM): 0.175

Cell Line: NCI-H2009
- relative viability (Bleomycin + Phenformin; first compound 0.01 µM): 0.474
- relative viability (Bleomycin + Phenformin; first compound 0.03162 µM): 0.512
- relative viability (Bleomycin + Phenformin; first compound 0.1 µM): 0.489
- relative viability (Bleomycin + Phenformin; first compound 0.3162 µM): 0.403
- relative viability (Bleomycin + Phenformin; first compound 1 µM): 0.383
- relative viability (Etoposide + Vorinostat; first compound 0.01 µM): 0.704
- relative viability (Etoposide + Vorinostat; first compound 0.03162 µM): 0.631
- relative viability (Etoposide + Vorinostat; first compound 0.1 µM): 0.571
- relative viability (Etoposide + Vorinostat; first compound 0.3162 µM): 0.597
- relative viability (Etoposide + Vorinostat; first compound 1 µM): 0.409
- relative viability (Etoposide + Pictilisib; first compound 0.01 µM): 0.693
- relative viability (Etoposide + Pictilisib; first compound 0.03162 µM): 0.898
- relative viability (Etoposide + Pictilisib; first compound 0.1 µM): 0.54
- relative viability (Etoposide + Pictilisib; first compound 0.3162 µM): 0.543
- relative viability (Etoposide + Pictilisib; first compound 1 µM): 0.236
- relative viability (Etoposide + Trametinib; first compound 0.01 µM): 0.239
- relative viability (Etoposide + Trametinib; first compound 0.03162 µM): 0.286
- relative viability (Etoposide + Trametinib; first compound 0.1 µM): 0.168
- relative viability (Etoposide + Trametinib; first compound 0.3162 µM): 0.246
- relative viability (Etoposide + Trametinib; first compound 1 µM): 0.216

Cell Line: 201T
- relative viability (Bleomycin + Phenformin; first compound 0.01 µM): 0.447
- relative viability (Bleomycin + Phenformin; first compound 0.03162 µM): 0.436
- relative viability (Bleomycin + Phenformin; first compound 0.1 µM): 0.47
- relative viability (Bleomycin + Phenformin; first compound 0.3162 µM): 0.361
- relative viability (Bleomycin + Phenformin; first compound 1 µM): 0.364
- relative viability (Etoposide + Vorinostat; first compound 0.01 µM): 0.905
- relative viability (Etoposide + Vorinostat; first compound 0.03162 µM): 1.03
- relative viability (Etoposide + Vorinostat; first compound 0.1 µM): 0.811
- relative viability (Etoposide + Vorinostat; first compound 0.3162 µM): 0.887
- relative viability (Etoposide + Vorinostat; first compound 1 µM): 0.485
- relative viability (Etoposide + Pictilisib; first compound 0.01 µM): 0.677
- relative viability (Etoposide + Pictilisib; first compound 0.03162 µM): 0.767
- relative viability (Etoposide + Pictilisib; first compound 0.1 µM): 0.652
- relative viability (Etoposide + Pictilisib; first compound 0.3162 µM): 0.63
- relative viability (Etoposide + Pictilisib; first compound 1 µM): 0.445
- relative viability (Etoposide + Trametinib; first compound 0.01 µM): 0.73
- relative viability (Etoposide + Trametinib; first compound 0.03162 µM): 0.76
- relative viability (Etoposide + Trametinib; first compound 0.1 µM): 0.707
- relative viability (Etoposide + Trametinib; first compound 0.3162 µM): 0.602
- relative viability (Etoposide + Trametinib; first compound 1 µM): 0.544
